The experiment has as its target T1, Aat (acetyl-CoA acetyltransferase) (Cupriavidus necator, UniProt P14611).
T1 construct: gene phaA; recombinant from E. coli BL21(DE3), Ni-NTA purified, desalted
T1 sequence (P14611 1-393): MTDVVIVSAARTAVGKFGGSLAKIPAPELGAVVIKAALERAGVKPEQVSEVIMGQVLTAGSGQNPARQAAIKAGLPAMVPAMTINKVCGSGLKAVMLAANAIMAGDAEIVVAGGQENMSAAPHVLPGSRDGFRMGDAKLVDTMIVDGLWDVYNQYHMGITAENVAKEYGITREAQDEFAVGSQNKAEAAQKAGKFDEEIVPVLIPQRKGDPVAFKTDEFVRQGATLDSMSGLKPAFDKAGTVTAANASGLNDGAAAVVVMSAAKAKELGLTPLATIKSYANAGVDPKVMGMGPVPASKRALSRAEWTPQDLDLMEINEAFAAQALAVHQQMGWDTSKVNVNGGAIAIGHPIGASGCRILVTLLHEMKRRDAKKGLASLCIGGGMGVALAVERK
Put plainly: LC-MS of condensation products, with Aar and Bbd. It is filed as biochemical. To be noted: acetyl-CoA and propionyl-CoA together.

`CC(=O)SCCNC(=O)CCNC(=O)[C@H](O)C(C)(C)COP(=O)(O)OP(=O)(O)OC[C@H]1O[C@@H](n2cnc3c(N)ncnc32)[C@H](O)[C@@H]1OP(=O)(O)O` [acetyl-CoA]: the “LC-MS of condensation products, with Aar and Bbd” value is “Promiscuity of Aat assayed with acetyl-CoA and propionyl-CoA”.

On to `CCC(=O)SCCNC(=O)CCNC(=O)[C@H](O)C(C)(C)COP(=O)(O)OP(=O)(O)OC[C@H]1O[C@@H](n2cnc3c(N)ncnc32)[C@H](O)[C@@H]1OP(=O)(O)O` [propionyl-CoA], for which, under “condensed with acetyl-CoA, not with itself”, the “LC-MS of condensation products, with Aar and Bbd” value was “All products for acetyl- and propionyl-CoA combinations were detectable”.
